From paper PMC3203607 (Nucleic Acids Research, 2011) come the findings set out here.

Holding throughout (format): binding
In experiment [1] the target is T1, Ascaris eIF4E-3 (Ascaris suum, UniProt Q6PKX2).
T1 sequence (Q6PKX2 1-236): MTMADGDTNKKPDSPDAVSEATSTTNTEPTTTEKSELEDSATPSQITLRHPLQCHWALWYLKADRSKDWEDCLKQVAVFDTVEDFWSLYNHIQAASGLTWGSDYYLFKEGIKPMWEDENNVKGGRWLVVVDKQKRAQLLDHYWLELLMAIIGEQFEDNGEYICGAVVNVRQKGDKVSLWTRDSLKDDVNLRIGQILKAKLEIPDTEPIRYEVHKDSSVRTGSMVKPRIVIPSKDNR
The experiment can be described thus: fluorescence titration. The note with it: read-out: KD (μM) / Ascaris eIF4E-3; 50 mM HEPES/KOH pH 7.20, 200 mM KCl, 1 mM DTT, 0.5 mM EDTA, 20 °C.

A further experiment deals with Human eIF4E (Homo sapiens, UniProt P06730). The experiment is described as follows: isothermal titration calorimetry. (ITC needs no label: the signal is the heat of the interaction.)
Experiment [2] concerns the target T1, Ascaris eIF4E-3. The experiment can be described thus: isothermal titration calorimetry. The following applies: 20 mM HEPES pH 7.4, 1 mM EDTA, 100 mM KCl, 20 °C; single-site model.
The next experiment deals with T2, Ascaris eIF4E-3 (49–236) (Ascaris suum, UniProt Q6PKX2).
T2 sequence (Q6PKX2 49-236): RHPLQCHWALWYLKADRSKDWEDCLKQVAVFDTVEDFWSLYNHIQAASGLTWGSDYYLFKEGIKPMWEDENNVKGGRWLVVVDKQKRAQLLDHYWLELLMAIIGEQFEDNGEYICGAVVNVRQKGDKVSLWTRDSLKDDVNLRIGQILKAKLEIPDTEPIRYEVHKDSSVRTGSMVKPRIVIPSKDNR
The experiment is described as follows: isothermal titration calorimetry.

The target of experiment [3] is T3, Ascaris eIF4E-3 (Ascaris suum, UniProt Q6PKX2, E116D).
T3 sequence (Q6PKX2 1-236 E116D): T1 sequence (Q6PKX2 1-236)
The experiment can be described thus: isothermal titration calorimetry. The note with it: 20 mM HEPES pH 7.4, 1 mM EDTA, 100 mM KCl, 20 °C.

The target of a further experiment is Human eIF4E (28–217) (Homo sapiens, UniProt P06730). The experiment is described as follows: fluorescence titration.
Chain of Human eIF4E (28–217) (P06730 28-217): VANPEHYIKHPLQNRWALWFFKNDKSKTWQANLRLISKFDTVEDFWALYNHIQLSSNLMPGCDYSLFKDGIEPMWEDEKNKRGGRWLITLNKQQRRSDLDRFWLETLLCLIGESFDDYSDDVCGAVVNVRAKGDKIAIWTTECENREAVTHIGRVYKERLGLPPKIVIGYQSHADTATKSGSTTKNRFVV

Chain of Human eIF4E (P06730 whole entry): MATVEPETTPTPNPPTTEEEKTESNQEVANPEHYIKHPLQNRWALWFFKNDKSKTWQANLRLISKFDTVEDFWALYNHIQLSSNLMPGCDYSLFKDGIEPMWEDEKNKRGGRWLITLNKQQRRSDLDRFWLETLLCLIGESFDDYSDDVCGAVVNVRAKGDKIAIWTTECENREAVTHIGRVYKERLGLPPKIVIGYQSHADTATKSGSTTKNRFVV

Consider `Nc1nc2c(ncn2[C@@H]2O[C@H](COP(=O)(O)OP(=O)(O)OP(=O)(O)O)[C@@H](O)[C@H]2O)c(=O)[nH]1` [GTP], for which the Kd on Ascaris eIF4E-3 [1] worked out at 83 ± 14 µM.
`CN(C)c1nc2c(c(=O)[nH]1)[n+](C)cn2[C@@H]1O[C@H](COP(=O)(O)OP(=O)(O)OP(=O)(O)O)[C@@H](O)[C@H]1O` [m^2,2,7GTP]: the Kd was found to be 4.56 ± 2.1 µM at Human eIF4E, 8.4 ± 1 µM on Ascaris eIF4E-3 [2], 12200 ± 3900 nM at Ascaris eIF4E-3 (49–236) and 7 ± 0.1 µM on Ascaris eIF4E-3 [3].
In the case of `CN(C)c1nc2c(c(=O)[nH]1)[n+](C)cn2[C@@H]1O[C@H](COP(=O)(O)OP(=O)(O)OP(=O)(O)OC[C@H]2O[C@@H](n3cnc4c(=O)[nH]c(N)nc43)[C@H](O)[C@@H]2O)[C@@H](O)[C@H]1O` [m^2,2,7GpppG], the Kd on Human eIF4E (28–217) was found to be 3.1 ± 1.1 µM.
For the compound `C[n+]1cn([C@@H]2O[C@H](COP(=O)(O)OP(=O)(O)OP(=O)(O)O)[C@@H](O)[C@H]2O)c2nc(N)[nH]c(=O)c21` [m^7GTP], the Kd at Ascaris eIF4E-3 [2] was 0.24 ± 0.04 µM; at Ascaris eIF4E-3 (49–236) it was 170 ± 50 nM; on Ascaris eIF4E-3 [3] it was 1.98 ± 0.2 µM.
As for `C[n+]1cn([C@@H]2O[C@H](COP(=O)(O)OP(=O)(O)OP(=O)(O)OC[C@H]3O[C@@H](n4cnc5c(=O)[nH]c(N)nc54)[C@H](O)[C@@H]3O)[C@@H](O)[C@H]2O)c2nc(N)[nH]c(=O)c21` [m^7GpppG], the Kd on Ascaris eIF4E-3 [1] is 0.787 ± 0.025 µM; at Ascaris eIF4E-3 (49–236), 750 ± 190 nM.
